This is an account of results in patent US20150328169A1, “POLYMERIC PARTICLES-BASED TEMOZOLOMIDE DOSAGE FORM” (OY FILANA LTD, priority 2012, published 2015).

One may read the LD50 as the dose at which mortality reaches 50%.

Molecules are shown by their SMILES.

The conditions of data set [1]: clinical trials; cited from earlier work.
The test system of data set [2] is B16 melanoma tumor. Put plainly: Antitumor activity in vivo, solid tumor of B-16 mouse melanoma. Also on record: species or system mice. To be noted: 40 mg/kg, 9th day of treatment.
Data set [3] has as its system Balb/c mice. Put plainly: Acute toxicity, single intraperitoneal dose, Litchfield-Wilcoxon. Format: in vivo. To be noted: i.p. single dose; for LD16 / LD84 / LD100: 14th day. How it is done:
(§1) The comparative analysis of the acute toxic action of the temozolomide substance and of the polymeric composition based thereon (Composition 1 as in Example 1) was performed on male and female Balb/c mice weighing 19-21 g as of the time of testing, 6 animals in each group. The mice were kept in standard cages No. 4, in the conditions of unlimited access to water and food, at natural lighting changes. Testing the toxic action of the drugs started upon a two-week isolation period of the animals. The drug was administered intraperitoneally, as a single dose. Water for injection was used as a medium. Upon the drug administration, the animals were continuously monitored for 24 hours. The total observation time was 28 days. According to the research results, the LD50 values were calculated as per the state of animals on the 14th day upon the administration of the drugs. The value of the mean lethal dose (LD50) was determined by Litchfield-Wilcoxon method [Belenky M. L. Elementy kolichestvennoy otsenki farmakologicheskogo effekta [In Russian: Elements of Drug-Induced Effect Quantitative Estimation]/2-e izd. pererab. i dop. L.: Medgiz, 1963. p. 81-106].

Experiment in data set [4]: as above
Format: in vivo, mice. To be noted: mouse, in vivo, ip, i.p. single dose, 14th day. How it is done: as §1

Turning to `Cn1nnc2c(C(N)=O)ncn2c1=O` [Temozolomide Substance, 8-carbamoyl-3-methyl-imidazo[5,1-d]-1,2,3,5-tetrazin-4-(3H)-one], the half lifetime in data set [1] is reported as 1.8 h. For the same molecule, the “tumor growth inhibition (TGI)” value in data set [2] is listed as 90%. In data set [3] (female Balb/c mice), the Toxic dose range result was “Toxic dose range was 426.5-526.7 mg/kg”, the LD16 result is “LD16 426.5 mg/kg”, the LD84 entry was “LD84 506.7 mg/kg” and the LD100 result was “LD100 526.7 mg/kg”. Besides, in data set [3] (male Balb/c mice), the Toxic dose range entry is “Toxic dose range was 424.0-543.5 mg/kg”, the LD16 result is “LD16 424.0 mg/kg”, the LD84 result is recorded as “LD84 519.6 mg/kg” and the LD100 result is given as “LD100 543.5 mg/kg”. The same molecule yielded an LD50 at 14 days in data set [4] (female Balb/c mice) of 467 mg/kg. Further, the LD50 at 14 days in data set [4] (male Balb/c mice) worked out at 472 mg/kg.
